Test system: LTB4 production in human blood
Assay: Inhibition of Calcium Ionophore-Induced LTB4 Production in Human Blood (HWB)
Type: cell-based
Details: Homo sapiens, human whole blood, A23187 20 mcg/ml; read-out: Inhibition of Calcium Ionophore-Induced LTB4 Production in Human Blood IC50 HWB
Procedure: One or more concentrations of the leukotriene A4 hydrolass inhibitor compounds being tested were prepared (diluted in DMSO) and 2 μl added and gently mixed with the diluted whole blood. After incubating for 15 minutes at 37° C. in a humidified incubator, calcium ionophore A23187 (Sigma Chemical Co., St. Louis, Mo.) was added to a final concentration of 20 mcg/ml and the incubation continued under the same conditions for an additional 10 minutes to allow LTB4 formation. The reaction was terminated by centrifugation (833 g, 10 minutes at 4° C.) and supernatant were analyzed for LTB4 and thromboxane by commercially available enzyme-linked immunoassays (Caymen Chemical Co., Ann Arbor, Mich.) according to the manufacturer's instructions. The IC50 of each test compound was determined from the amount of inhibition of LTB4 production as compared to an essentially identical assay in which no inhibitor compound was present.

Row | SMILES | IC50
1 | CNC(=O)C1CCN(CCOc2ccc(Oc3ccccc3)cc2)CC1 [Example 255] | 608 nM
2 | NCCOc1ccc(Cc2ccccc2)cc1 [Example 496] | 280 nM
3 | c1csc(COc2ccc(OCCN3CCCC3)cc2)c1 [Example 215] | 190 nM
4 | CCOC(=O)CCNCCCOc1ccc(Cc2ccccc2)cc1 [Example 265] | 450 nM
5 | Cc1cc(Cc2ccccc2)ccc1OCCN1CCCC1 [Example 117] | 4150 nM
6 | c1ccc(Cc2ccc3c(c2)CCC(CN2CCCC2)O3)cc1 (stereo not shown) [Example 292] | 52 nM
7 | N=C(N)C1CCN(CCOc2ccc(Cc3ccccc3)cc2)CC1 [Example 449] | 913 nM
8 | C#CC(CC(=O)OCC)NCCCOc1ccc(Cc2ccccc2)cc1 (stereo not shown) [Example 407] | 707 nM
9 | NC(=O)C1CCN(CC2Cc3cc(Oc4ccccc4)ccc3O2)CC1 (stereo not shown) [Example 290] | 528 nM
10 | CCOC(=O)CCNC(=O)C1CCN(CCOc2ccc(Cc3ccccc3)cc2)CC1 [Example 249] | 429 nM
11 | c1ccc(Oc2ccc(OCCCn3cnc4cnccc43)cc2)cc1 [Example 351B] | 2050 nM
12 | COC(=O)CCN(C)CCCOc1ccc(Cc2ccccc2)cc1 [Example 413] | 42 nM
13 | Clc1cccc(Cc2ccc(OCCN3CCCC3)cc2)c1 [Example 143] | 290 nM
14 | NC(=O)C1CCN(CCOc2ccc(Cc3cccs3)cc2)CC1 [Example 229] | 220 nM
15 | c1ccc(Oc2ccc(OCCCn3cnc4ncccc43)cc2)cc1 [Example 350B] | 950 nM
16 | NC(=O)C1CCN(CCOc2ccc(Cc3ccccc3)s2)CC1 [Example 369] | 1530 nM
17 | c1ccc(Oc2ccc(OCCN3CCCC3)nc2)cc1 [Example 65] | 510 nM
18 | NC(=O)C1CCN(CCOc2ccc(Cc3ccsc3)cc2)CC1 [Example 230] | 284 nM
19 | Fc1ccc(Oc2ccc(OCCn3cnc4ccncc43)cc2)cc1 [Example 355A] | 2230 nM
20 | c1ccc2ncc(COc3ccc(OCCN4CCCC4)cc3)cc2c1 [Example 201] | 1750 nM

Row | SMILES | IC50
21 | Fc1ccccc1Cc1ccc(OCCN2CCCC2)cc1 [Example 141] | 280 nM
22 | O=C(O)[C@@H]1CCCN1CCCOc1ccc(Cc2ccccc2)cc1 [Example 430] | 290 nM
23 | CCOC(=O)CCNCCCCCOc1ccc(Cc2ccccc2)cc1 [Example 274] | 1250 nM
24 | Fc1ccccc1COc1ccc(OCCN2CCCC2)cc1 [Example 207] | 640 nM
25 | NC(=O)C1CCN(CC2Cc3cc(Cc4ccccc4)ccc3O2)CC1 (stereo not shown) [Example 281] | 167 nM
26 | c1ccc(Cc2ccc(OCCNC3CCCCC3)cc2)cc1 [Example 240] | 2450 nM
27 | CCOC(=O)C1CCN(CC2Cc3cc(Oc4ccccc4)ccc3O2)CC1 (stereo not shown) [Example 291] | 1850 nM
28 | Oc1ccc(Cc2ccc(OCCN3CCCC3)cc2)cc1 [Example 137] | 80 nM
29 | CCOC(=O)C1CCN(CCOc2ccc(Cc3cccc(F)c3)cc2)CC1 [Example 309] | 1770 nM
30 | COC(=O)C1CC2CC1CN(CCOc1ccc(Cc3ccccc3)cc1)C2 (stereo not shown) [Example 504] | 7700 nM
31 | c1ccc2c(COc3ccc(OCCN4CCCC4)cc3)cccc2c1 [Example 214] | 10000 nM
32 | CC(=O)N[C@@H]1CCN(CCOc2ccc(Cc3ccccc3)cc2)[C@@H](C)C1 (relative stereo) [Example 467] | 226 nM
33 | COC(=O)C1(O)CCN(CCOc2ccc(Cc3ccccc3)cc2)CC1 [Example 305] | 1230 nM
34 | c1ccc(Cc2ccc(OCCn3cnc4ccccc43)cc2)cc1 [Example 339] | 13100 nM
35 | c1ccc(Oc2ccc3c(c2)CC(CN2CCCC2)O3)cc1 (stereo not shown) [Example 289] | 316 nM
36 | CCOC(=O)C1CCCN(CCCOc2ccc(Cc3ccccc3)cc2)C1 (stereo not shown) [Example 269] | 1180 nM
37 | c1csc(Cc2ccc(OCCN3CCCC3)cc2)c1 [Example 133] | 43 nM
38 | CCOC(=O)CC1CCN(CCOc2ccc(Oc3ccccc3)cc2)CC1 [Example 300] | 2510 nM
39 | c1ccc(COc2ccc(OCCn3cnc4ncccc43)cc2)cc1 [Example 346B] | 3570 nM
40 | c1ccc(Oc2ccc(OCCn3cnc4ccncc43)cc2)cc1 [Example 349A] | 790 nM

Reference: patent publication US5585492A, “LTA4 Hydrolase inhibitors” (priority 1994, dated 1996)
